Results: patent publication US8106186B2, “Transition metal phosphine complex, method for producing same, and anticancer agent containing transition metal phospine complex” (Nippon Chemical Industrial Co., Ltd., priority 2005, dated 2012)

Assays:
[1] = test system: female Sprauge-Dawley SPF rats (CrJ:CD (SD)); assay: Toxicity test by single oral administration to rats; type: in vivo, rat; conditions: for LD50: rats, single oral dose in corn oil, observed 14 days, from survival rate
Text: After female Sprauge-Dawley SPF rats (CrJ:CD (SD)) were quarantined and acclimated for about a week, healthy 8-week-old rats were selected in groups of five rats.

[2] = test system: Human acute myelocytic leukemia cells HL-60; assay: Evaluation of anticancer property 1: MTT viable cell assay (modified Mosmann method); type: cell-based; conditions: HL-60 cells, 24 hours culture, average of assays
Experimental: Human acute myelocytic leukemia cells cancer cells HL-60 was used as cancer cells. The cells were cultured in Rosewell Park Memorial Institute medium (RPMI 1640) supplemented with 10% fetal bovine serum, 1% antibiotic, and an antifungal agent in an atmosphere of 5% carbon dioxide in a moist incubator at 37° C.
Cells were washed with PBS. After the number of cells was determined, a suspension (1×10^6 cells/mL) was prepared with the same medium. The suspension was seeded in a sterile 96-well microplate at a density of 50,000 cells/well.
The wells were further cultured in the incubator for 24 hours.
The number of viable cells was determined by a modified Mosmann method (T. Mosmann, J. Immunnol. Method (1983)65, 55-63). […] The wells were cultured for another 3 hours under the same conditions. Formazan crystals formed by the enzyme activity of mitochondria in the cells were dissolved in 0.04 mol/HCl/isopropyl alcohol. The absorbance of each well was measured at 595 nm with a microplate reader (Bio-Rad 550). To remove the background, the absorbance of each well was measured at 630 nm. The absorbance at 630 nm was subtracted from the actual measured value. This is determined to be the number of viable cells.

[3] = test system: COLO205 (cells derived from human colon); assay: Evaluation of anticancer property 2: MTT assay, colon cells; type: cell-based; conditions: COLO205, RPMI-1640+10% FBS, assayed as in Evaluation 1; read-out: IC50, Cell derived from human colon
Experimental: (§1) The number of viable cells was determined by a modified Mosmann method (T. Mosmann, J. Immunnol. Method (1983)65, 55-63). That is, a solution of a tetrazolium salt (3,[4,5-dimethylthiazole-2-yl]-2,5-diphenyltetrazolium bromide, MTT) was added thereto. The wells were cultured for another 3 hours under the same conditions. Formazan crystals formed by the enzyme activity of mitochondria in the cells were dissolved in 0.04 mol/HCl/isopropyl alcohol. The absorbance of each well was measured at 595 nm with a microplate reader (Bio-Rad 550). To remove the background, the absorbance of each well was measured at 630 nm. The absorbance at 630 nm was subtracted from the actual measured value. This is determined to be the number of viable cells. […] For the values shown in Table 3, each of Compounds 1 to 3 was assayed three times, and the average value was shown.
(§2) Compounds (2) and (3) obtained in Examples 2 and 3 were assayed as in Evaluation 1 with HCS-4 (cells derived from human tongue cancer, medium: RPMI 1640+10% FBS), COLO205 (cells derived from human colon, medium: RPMI-1640+10% FBS), and SH-10-TC (cells derived from human gastric cancer, medium: RPMI-1640+10% FBS).

[4] = test system: SH-10-TC (cells derived from human gastric cancer); assay: Evaluation of anticancer property 2: MTT assay, gastric cancer cells; type: cell-based; conditions: RPMI-1640+10% FBS, assayed as in Evaluation 1, read-out: IC50, Cell derived from human gastrict cancer
Experimental: as §1, §2

[5] = test system: HCS-4 (cells derived from human tongue cancer); assay: Evaluation of anticancer property 2: MTT assay, tongue cancer cells; type: cell-based; conditions: HCS-4, RPMI 1640+10% FBS, assayed as in Evaluation 1; read-out: IC50, Cell derived from human tongue cancer
Experimental: as §1, §2

Substance	Death of rats, 100 mg/kg group ([1]; single oral dose 100 mg/kg, five rats, death at 5 days after administration)	Death of rats, 300 mg/kg group ([1]; single oral dose 300 mg/kg, five rats, deaths by day 2)	Death of rats, 20 and 50 mg/kg groups ([1]; single oral dose 20 and 50 mg/kg, five rats per group)	IC50 [2]	IC50 [3]	IC50 [4]	IC50 [5]	LD50 [1]
bis[1,2-bis(phenyl(2-pyridyl)phosphino)ethane]gold(I) chloride [Compound (5), reference compound]	one rat died	three rats died	no death was observed	3560 nM				
bis((R,R)-1,2-bis(tert-butyl(2-pyridyl)phosphino)ethane)gold(I) chloride [Compound (3)]				3580 nM	1500 nM	900 nM	3500 nM	300 mg/kg or more
bis(rac-1,2-bis(tert-butyl(2-pyridyl)phosphino)ethane)gold(I) chloride [Compound (1)]				4510 nM				300 mg/kg or more
bis(meso-1,2-bis(tert-butyl(2-pyridyl)phosphino)ethane)gold(I) chloride [Compound (2)]				5130 nM	2200 nM	1200 nM	1400 nM	300 mg/kg or more
